In experiment [1] the test system is T47D (PI3Kα-H1047R) cell line. Put plainly: HTRF phospho-AKT(S473) cell assay in T47D cells. The class given is cell-based, human. The note with it: Homo sapiens, 2 hours compound incubation. In outline: (§1)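 T47D: RPMI + 10% FBS + 0.2 units/mL insulin, top 5 μM. SKBR3: McCoy's 5A + 10% FBS, top 10 μM, 70 ng/ml PDGF-BB last 15 min. Both: 12-pt 1:3, 2 h, 37° C, max 0.5% DMSO; HTRF pAKT(S473); IC50.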
(Time-resolved FRET reads energy transfer from a long-lived donor to a nearby acceptor.)

Experiment [2] deals with SKBR3 (PI3Kα-Wild Type) cell line. Kind of experiment: HTRF phospho-AKT(S473) cell assay in SKBR3 cells. As to conditions: Homo sapiens, SK-BR-3, 2 hours compound incubation, PDGF-BB stimulated. Format: cell-based, human. In a few lines: as §1
Where [3] appears, read: HTRF phospho-AKT(S473), T47D (PI3Kα-H1047R) cells.
Setting [4] is: HTRF phospho-AKT(S473), SKBR3 (PI3Kα-Wild Type) cells.
[5] abbreviates: T47D (PI3Kα-H1047R) cells, HTRF phospho-AKT(S473).
The mark [6] stands for this setting: SKBR3 (PI3Kα-Wild Type) cells, HTRF phospho-AKT(S473).
Setting [7] is: T47D (PI3Kα-H1047R) cell line, phospho-AKT(S473) HTRF.
Setting [8] is: SKBR3 (PI3Kα-Wild Type) cell line, phospho-AKT(S473) HTRF.

In general, IC50 refers to the concentration that gives 50% inhibition. A higher IC50 goes with a need for much substance.

`Cc1cc([C@@H](C)Nc2ccc(Cl)nc2C(=O)NS(C)(=O)=O)c2nc(N3CC[C@@H](c4ccnc(C)c4)C3)n(C)c(=O)c2c1` (relative stereo) [Compound 764, 6-chloro-3-(((R)-1-(3,6-dimethyl-2-((R*)-3-(2-methylpyridin-4-yl)pyrrolidin-1-yl)-4-oxo-3,4-dihydroquinazolin-8-yl)ethyl)amino)-N-(methylsulfonyl) picolinamide]: the IC50 in experiment [1] (setting [3]) is below 250 nM; in experiment [2] (setting [4]), 1000 to 5000 nM.
With `CCS(=O)(=O)NC(=O)c1nc(Cl)ccc1N[C@H](C)c1cc(C)cc2c(=O)n(C)c(N3Cc4ccc(F)cc4C3)nc12` [Compound 110, (R)-6-chloro-N-(ethylsulfonyl)-3-((1-(2-(5-fluoroisoindolin-2-yl)-3,6-dimethyl-4-oxo-3,4-dihydroquinazolin-8-yl)ethyl)amino) picolinamide], the IC50 in experiment [1] (setting [5]) was in the range of 250 to 500 nM; in experiment [2] (setting [6]) it was 1000 to 5000 nM.
As to `Cc1cc([C@@H](C)Nc2ccc(Cl)nc2C(=O)NS(C)(=O)=O)c2nc(N3CC[C@H](N(C)c4ncc(Cl)cn4)C3)n(C)c(=O)c2c1` [Compound 740, 6-chloro-3-(((R)-1-(2-((S)-3-((5-chloropyrimidin-2-yl)(methyl)amino)pyrrolidin-1-yl)-3,6-dimethyl-4-oxo-3,4-dihydroquinazolin-8-yl)ethyl)amino)-N-(methylsulfonyl) picolinamide], the IC50 was 250 to 500 nM in experiment [1] (setting [3]) and at least 5000 nM in experiment [2] (setting [4]).
With `Cc1cc([C@@H](C)Nc2ccc(Cl)nc2C(=O)NS(C)(=O)=O)c2nc(N3CCC(c4ccn(C)n4)CC3)n(C3CC3)c(=O)c2c1` [Compound 372, (R)-6-chloro-3-((1-(3-cyclopropyl-6-methyl-2-(4-(1-methyl-1H-pyrazol-3-yl)piperidin-1-yl)-4-oxo-3,4-dihydroquinazolin-8-yl)ethyl)amino)-N-(methylsulfonyl) picolinamide], the IC50 was below 250 nM in experiment [1] (setting [5]) and 1000 to 5000 nM in experiment [2] (setting [6]).
As to `Cc1cc([C@@H](C)Nc2ccc(Cl)nc2C(=O)NS(C)(=O)=O)c2nc(-c3ccc4cn[nH]c4c3)n(C)c(=O)c2c1` [Compound 834, (R)-3-((1-(2-(1H-indazol-6-yl)-3,6-dimethyl-4-oxo-3,4-dihydroquinazolin-8-yl)ethyl)amino)-6-chloro-N-(methylsulfonyl) picolinamide], the IC50 in experiment [1] (setting [3]) lay in the range of 500 to 1000 nM; in experiment [2] (setting [4]) it was 1000 to 5000 nM.
Turning to `Cc1cc([C@@H](C)Nc2ccc(Cl)nc2C(=O)NS(C)(=O)=O)c2nc(N3CC[C@@H](c4ccc(C)nc4)C3)n(C)c(=O)c2c1` (relative stereo) [Compound 659, 6-chloro-3-(((R)-1-(3,6-dimethyl-2-((R*)-3-(6-methylpyridin-3-yl)pyrrolidin-1-yl)-4-oxo-3,4-dihydroquinazolin-8-yl)ethyl)amino)-N-(methylsulfonyl) picolinamide], the IC50 in experiment [1] (setting [3]) was below 250 nM; in experiment [2] (setting [4]) it was 1000 to 5000 nM.
For `Cc1cc([C@@H](C)Nc2ccc(Cl)nc2C(=O)NS(C)(=O)=O)c2nc(-c3ccc(OC4CCN(CC(F)(F)F)CC4)nc3)n(C)c(=O)c2c1` [Compound 846, (R)-6-chloro-3-((1-(3,6-dimethyl-4-oxo-2-(6-((1-(2,2,2-trifluoroethyl)piperidin-4-yl)oxy)pyridin-3-yl)-3,4-dihydroquinazolin-8-yl)ethyl)amino)-N-(methylsulfonyl) picolinamide], the IC50 in experiment [1] (setting [7]) was 250 to 500 nM; in experiment [2] (setting [8]) it was at least 5000 nM.
Regarding `Cc1cc([C@@H](C)Nc2ccc(Cl)nc2C(=O)NS(C)(=O)=O)c2nc(N3C[C@H]4C[C@@H]3CN4c3ccc(C#N)cn3)n(C)c(=O)c2c1` [Compound 601, 6-chloro-3-(((R)-1-(2-((1R,4R)-5-(5-cyanopyridin-2-yl)-2,5-diazabicyclo [2.2.1]heptan-2-yl)-3,6-dimethyl-4-oxo-3,4-dihydroquinazolin-8-yl)ethyl)amino)-N-(methylsulfonyl) picolinamide], the IC50 in experiment [1] (setting [3]) is 250 to 500 nM; in experiment [2] (setting [4]), 1000 to 5000 nM.
The corresponding values for `CCn1ncc(F)c1C1CCN(c2nc3c([C@@H](C)Nc4ccc(Cl)nc4C(=O)NS(C)(=O)=O)cc(C)cc3c(=O)n2C)CC1` [Compound 467, (R)-6-chloro-3-((1-(2-(4-(1-ethyl-4-fluoro-1H-pyrazol-5-yl)piperidin-1-yl)-3,6-dimethyl-4-oxo-3,4-dihydroquinazolin-8-yl)ethyl)amino)-N-(methylsulfonyl) picolinamide] are below 250 nM and at least 5000 nM.
Regarding `COc1nc2cc(-c3nc4c([C@@H](C)Nc5ccc(Cl)nc5C(=O)NS(C)(=O)=O)cc(C)cc4c(=O)n3C)ccc2n1C` [Compound 849, (R)-6-chloro-3-((1-(2-(2-methoxy-1-methyl-1H-benzo[d]imidazol-5-yl)-3,6-dimethyl-4-oxo-3,4-dihydroquinazolin-8-yl)ethyl)amino)-N-(methylsulfonyl) picolinamide], the IC50 in experiment [1] (setting [7]) was 250 to 500 nM; in experiment [2] (setting [8]) it was at least 5000 nM.
With `Cc1cc([C@@H](C)Nc2ccc(Cl)nc2C(=O)NS(C)(=O)=O)c2nc(N3CCC[C@@H](c4cnc(C)c(C#N)c4)C3)n(C)c(=O)c2c1` (relative stereo) [Compound 614, 6-chloro-3-(((R)-1-(2-((R*)-3-(5-cyano-6-methylpyridin-3-yl)piperidin-1-yl)-3,6-dimethyl-4-oxo-3,4-dihydroquinazolin-8-yl)ethyl)amino)-N-(methylsulfonyl) picolinamide], the IC50 in experiment [1] (setting [3]) was 500 to 1000 nM; in experiment [2] (setting [4]), at least 5000 nM.
Consider `Cc1cc([C@@H](C)Nc2ccc(Cl)nc2C(=O)NS(C)(=O)=O)c2nc(N3CCC(c4nn(C)c(C)c4F)CC3)n(C)c(=O)c2c1` [Compound 421, (R)-6-chloro-3-((1-(2-(4-(4-fluoro-1,5-dimethyl-1H-pyrazol-3-yl)piperidin-1-yl)-3,6-dimethyl-4-oxo-3,4-dihydroquinazolin-8-yl)ethyl)amino)-N-(methylsulfonyl) picolinamide], for which the figures for the IC50 in experiment [1] (setting [5]) and in experiment [2] (setting [6]) were 250 to 500 nM and at least 5000 nM, respectively.
As for `Cc1cc([C@@H](C)Nc2ccc(Cl)nc2C(=O)NS(C)(=O)=O)c2nc(N3CC[C@H](Oc4ncc(F)cn4)C3)n(C)c(=O)c2c1` [Compound 537, 6-chloro-3-(((R)-1-(2-((S)-3-((5-fluoropyrimidin-2-yl)oxy)pyrrolidin-1-yl)-3,6-dimethyl-4-oxo-3,4-dihydroquinazolin-8-yl)ethyl)amino)-N-(methylsulfonyl) picolinamide], the values for the IC50 in experiment [1] (setting [3]) and in experiment [2] (setting [4]) were 250 to 500 nM and at least 5000 nM, respectively.
As to `Cc1cc([C@@H](C)Nc2ccc(Cl)nc2C(=O)NS(C)(=O)=O)c2nc(N3C[C@@H]4C(c5ccnc(C)c5F)[C@@H]4C3)n(C)c(=O)c2c1` (stereo partly drawn) [Compound 763, 6-chloro-3-(((1R)-1-(2-((1R,5S)-6-(3-fluoro-2-methylpyridin-4-yl)-3-azabicyclo[3.1.0]hexan-3-yl)-3,6-dimethyl-4-oxo-3,4-dihydroquinazolin-8-yl)ethyl)amino)-N-(methylsulfonyl) picolinamide], the values for the IC50 in experiment [1] (setting [3]) and in experiment [2] (setting [4]) were 250 to 500 nM and 1000 to 5000 nM, respectively.
In the case of `Cc1cc([C@@H](C)Nc2ccc(Cl)nc2C(=O)NS(C)(=O)=O)c2nc(N3CCc4cn(CC(F)(F)F)nc4C3)n(C)c(=O)c2c1` [Compound 214, (R)-6-chloro-3-((1-(3,6-dimethyl-4-oxo-2-(2-(2,2,2-trifluoroethyl)-2,4,5,7-tetrahydro-6H-pyrazolo[3,4-c]pyridin-6-yl)-3,4-dihydroquinazolin-8-yl)ethyl)amino)-N-(methylsulfonyl) picolinamide], the IC50 in experiment [1] (setting [5]) was below 250 nM; in experiment [2] (setting [6]), 1000 to 5000 nM.
Take `Cc1cc([C@@H](C)Nc2ccc(Cl)nc2C(=O)NS(C)(=O)=O)c2nc([C@H]3CCCN(c4nccc(C)n4)C3)n(C)c(=O)c2c1` (mixture of isomers) [Compound 756, 6-chloro-3-(((R)-1-(3,6-dimethyl-2-((RS)-1-(4-methylpyrimidin-2-yl)piperidin-3-yl)-4-oxo-3,4-dihydroquinazolin-8-yl)ethyl)amino)-N-(methylsulfonyl) picolinamide]: the IC50 was 500 to 1000 nM in experiment [1] (setting [3]) and at least 5000 nM in experiment [2] (setting [4]).
Turning to `[2H]C([2H])([2H])n1ccc([C@H]2[C@@H]3CN(c4nc5c([C@@H](C)Nc6ccc(Cl)nc6C(=O)NS(C)(=O)=O)cc(C)cc5c(=O)n4C4CC4)C[C@@H]32)n1` [Compound 734, 6-chloro-3-(((R)-1-(3-cyclopropyl-6-methyl-2-((1R,5S,6R)-6-(1-(methyl-d3)-1H-pyrazol-3-yl)-3-azabicyclo[3.1.0]hexan-3-yl)-4-oxo-3,4-dihydroquinazolin-8-yl)ethyl)amino)-N-(methylsulfonyl) picolinamide], the IC50 in experiment [1] (setting [3]) was in the range of 250 to 500 nM; in experiment [2] (setting [4]), 1000 to 5000 nM.
Regarding `Cc1cc([C@@H](C)Nc2ccc(Cl)nc2C(=O)NS(C)(=O)=O)c2nc(N3CCN(c4cnn(CC(F)(F)F)c4)CC3)n(C)c(=O)c2c1` [Compound 193, (R)-6-chloro-3-((1-(3,6-dimethyl-4-oxo-2-(4-(1-(2,2,2-trifluoroethyl)-1H-pyrazol-4-yl)piperazin-1-yl)-3,4-dihydroquinazolin-8-yl)ethyl)amino)-N-(methylsulfonyl) picolinamide], the IC50 in experiment [1] (setting [5]) is below 250 nM; in experiment [2] (setting [6]) it was 1000 to 5000 nM.

(Values after US12281122B1, “PI3K inhibitors” (Cogent Biosciences, Inc., priority 2023, dated 2025).)
